Laboratory results from patent publication US8389565B2, “Glycosidase inhibitors and methods of synthesizing same” (Simon Fraser University, priority 2000, dated 2013).
Where a name gives a salt, the structure may show the parent alone. Read-outs that look alike come from different tables or passages of the source.

Columns and labels:
[1] = Stability on storage in aqueous solution; type: physicochemical
[2] = biological target: T1, Human Pancreatic α-Amylase (HPA) (Homo sapiens, UniProt P04746); assay: Human pancreatic α-amylase assay, hydrolysis of 2,4-Dinitrophenyl maltotrioside; type: biochemical; conditions: for Ki: n.a. = not active
T1 sequence (P04746 16-511): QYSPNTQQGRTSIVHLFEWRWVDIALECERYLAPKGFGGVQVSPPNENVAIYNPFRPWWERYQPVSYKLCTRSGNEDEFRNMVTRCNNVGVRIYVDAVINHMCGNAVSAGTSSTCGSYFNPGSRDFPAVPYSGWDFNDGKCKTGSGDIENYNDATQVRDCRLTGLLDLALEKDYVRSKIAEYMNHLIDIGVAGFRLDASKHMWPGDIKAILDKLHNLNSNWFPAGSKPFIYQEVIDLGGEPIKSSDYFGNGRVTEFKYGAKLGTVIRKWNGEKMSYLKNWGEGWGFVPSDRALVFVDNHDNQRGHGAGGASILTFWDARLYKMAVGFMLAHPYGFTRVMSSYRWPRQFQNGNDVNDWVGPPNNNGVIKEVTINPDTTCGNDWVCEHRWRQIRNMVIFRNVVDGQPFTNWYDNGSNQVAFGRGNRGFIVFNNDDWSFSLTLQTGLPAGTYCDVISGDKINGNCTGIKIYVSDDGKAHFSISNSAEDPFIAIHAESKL
Description: These assays were performed with purified enzyme. The ability of candidate inhibitors to inhibit the hydrolysis of 2,4-Dinitrophenyl maltotrioside was monitored by UV-visible spectroscopy of the released 2,4-dinitrophenol.

[3] = system: sucrase; conditions: cited from earlier work
[4] = system: Sprague-Dawley rats; assay: In vivo maltose gavage in catheterized rats: plasma glucose and insulin; parameters: species or system rat; conditions: maltose gavage 1000 mg/kg with 25 mg/kg drug; for decrease of the 90 minute insulin AUC: versus Control
Description: Five week old Sprague-Dawley rats were housed singly under a 12:12-h light-dark photoperiod and given free access to water and rat chow (Purina rodent chow). After one week of acclimation, chronic indwelling catheters were implanted.
Animals were anesthetized with a combination of Ketamine-Xylazine-Butorphanol (0.1 ml/100 g im). Analgesic (Butorphenol, 1 mg/kg sc) was administered following recovery from anesthesia and the following morning. Antibiotic was administered by one dose sc and in the drinking water for 4 days post-operative (Baytril, 5 mg/kg sc, Bayer, Toronto, Canada; Baytril, 50 mg/ml: 0.36 ml solution in 250 ml drinking water). A sterile catheter (Intramedic PE-50 with ˜3 cm beveled Silastic tip) was placed in the left carotid artery and the distal end of the catheter was tunneled subcutaneously, exteriorized, and anchored at the nape of the neck. The catheters were protected from chewing by a stainless steel tether connected to a swivel system which allowed free movement of the animal and easy access to the catheter by the investigator.
The animals were allowed to recover for 1 week. Experiments were performed on conscious, unrestrained animals that had been fasted overnight by removal of chow from the cage hoppers at 2100. At 0800 the following morning animals were weighed and Atropine (0.05 mg/kg sc) was administered as a […]. At baseline, animals were administered a bolus of maltose by oral gavage (1000 mg/kg body weight) with or without drug (25 mg/kg body weight for all agents). Blood samples (0.1 mL) were taken via the implanted carotid line at -15 and -5 min for the baseline and at 7, 15, 30, 60, 90, 120, 210, 300 min.
Blood samples were kept on ice in microcentrifuge tubes and then were centrifuged. The plasma was stored at −20° C. until it was assayed. Plasma volume was triple replaced with heparinized saline (10u/mL), but red blood cells were not reinfused. Plasma glucose was assayed with the glucose oxidase method (Trinder RAICHEM Division of Hemagen Diagnostics, Inc. San Diego, Calif.). Plasma insulin concentrations were measured by rat insulin ELISA (Crystal Chem INC, Downers Grove, Ill.). Six experiments were performed for each treatment (control, Blintol, Acarbose, Salacinol).
All data are presented as means±SE. The significance of changes in plasma glucose and insulin were tested by two-way repeated-measures analysis of variance and were performed with the Statistical Analysis System for Windows (version 6.3, SAS Institute, Cary, N.C.). AUCs were compared using unpaired t-tests.

[5] = system: maltase activity in biopsies with live intestinal cells; assay: Maltase activity in biopsies with live intestinal cells; type: cell-based, human; conditions: 5 μM concentration
Text: • 1) It appears that Acarbose acts principally by inhibiting human pancreatic α-amylase (HPA) and the breakdown of starch.

[6] = biological target: Maltase Glucoamylase (MGA) (Homo sapiens, UniProt O43451); assay: MGA activity in extracts of COS cells transfected with MGA5′ (maltase subunit) construct, maltose hydrolysis, glucose oxidase colorimetric assay; type: biochemical; parameters: COS cells transfected with MGA5′ (maltase subunit clone 10) construct were used; expressed in transfected cells; host or cells: COS cells; conditions: for Ki MGA (Human intestinal maltase glucoamylase): only the order of magnitude of activity (nM, μM, mM) or n.a. = not active
Description: In the assays, COS cells transfected with MGA5′ (maltase subunit clone 10) construct were used. Activity measurements were performed with cell extracts containing MGA. Maltose hydrolysis was monitored by measurement of the glucose released by a glucose oxidase colorimetric assay. Inhibition of this hydrolysis was measured as a reduction in OD reading.
In practice, an OD reading in the absence of the inhibitor was recorded, followed by a reading in the presence of the inhibitor. The percent reduction in OD reading upon administering a candidate inhibitor (see Table 11) was then correlated with a percent inhibition for a given concentration.

[7] = biological target: T2, porcine pancreatic α-amylase (PPA) (Sus scrofa, UniProt P00690); assay: Inhibition of porcine pancreatic α-amylase activity towards DP17 amylose; type: biochemical
T2 construct: purchased Sigma
T2 sequence (P00690 16-511): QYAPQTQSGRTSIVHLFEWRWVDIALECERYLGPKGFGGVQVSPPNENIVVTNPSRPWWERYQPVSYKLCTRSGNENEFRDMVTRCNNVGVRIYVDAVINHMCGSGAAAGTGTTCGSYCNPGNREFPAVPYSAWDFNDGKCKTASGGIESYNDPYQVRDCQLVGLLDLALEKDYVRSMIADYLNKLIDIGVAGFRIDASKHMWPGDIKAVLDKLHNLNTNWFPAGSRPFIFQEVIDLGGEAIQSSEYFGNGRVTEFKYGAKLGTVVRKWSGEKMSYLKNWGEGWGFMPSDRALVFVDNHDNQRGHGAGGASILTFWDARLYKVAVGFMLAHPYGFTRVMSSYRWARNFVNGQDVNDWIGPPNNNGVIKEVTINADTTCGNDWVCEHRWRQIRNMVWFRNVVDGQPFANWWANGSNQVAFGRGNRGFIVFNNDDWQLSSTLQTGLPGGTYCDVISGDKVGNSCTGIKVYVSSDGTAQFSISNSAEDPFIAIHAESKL
Text: (§1) Porcine pancreatic α-amylase (PPA) and bovine serum albumin (BSA) were purchased from Sigma. Amylose EX-1 (DP17; average degree of polymerization 17) was purchased from Hayashibara Chemical Laboratories (Okayama, Japan). Recombinant barley α-amylase isozyme 1 (AMY1) was produced and purified as described.^23 An aliquot of the porcine pancreatic x-amylase (PPA) crystalline suspension (in ammonium sulfate) was dialyzed extensively against the assay buffer without BSA. The enzyme concentration was determined by aid of amino acid analysis as determined using an LKB model Alpha Plus amino acid analyzer. […] Six different final inhibitor concentrations were used in the range 1 μM-5 mM. The inhibitor was pre-incubated with enzyme for 5 min at 37° C. before addition of substrate.

[8] = biological target: T3, glucoamylase G2 form from Aspergillus niger (Aspergillus niger, UniProt P69328); assay: Inhibition of glucoamylase G2-catalyzed hydrolysis of maltose; type: biochemical
T3 construct: purchased Novo Nordisk, Bagsvaerd, Denmark
Description: The glucoamylase G2 form from Aspergillus niger was purified from a commercial enzyme (Novo Nordisk, Bagsvaerd, Denmark) as described.^19,20 The initial rates of glucoamylase G2-catalyzed hydrolysis of maltose was tested with 1 mM maltose as substrate in 0.1 M sodium acetate pH 4.5 at 45° C. using an enzyme concentration of 7.0×10^−8 M and five inhibitor concentrations in the range 1 μm-5 mM. The effect of the inhibition on rates of substrate hydrolysis were compared for the different compounds.

[9] = biological target: T4, Recombinant barley α-amylase isozyme 1 (AMY1) (Hordeum vulgare, UniProt P00693); assay: Inhibition of barley α-amylase isozyme 1 activity towards DP17 amylose; type: biochemical
T4 construct: made in house
Text: as §1

[10] = read-out: Ki PPA (Porcine pancreatic α-amylase)
[11] = read-out: Ki AMY1 (Barley α-amylase)

Chain of Maltase Glucoamylase (MGA) (O43451 356-737 limits assumed): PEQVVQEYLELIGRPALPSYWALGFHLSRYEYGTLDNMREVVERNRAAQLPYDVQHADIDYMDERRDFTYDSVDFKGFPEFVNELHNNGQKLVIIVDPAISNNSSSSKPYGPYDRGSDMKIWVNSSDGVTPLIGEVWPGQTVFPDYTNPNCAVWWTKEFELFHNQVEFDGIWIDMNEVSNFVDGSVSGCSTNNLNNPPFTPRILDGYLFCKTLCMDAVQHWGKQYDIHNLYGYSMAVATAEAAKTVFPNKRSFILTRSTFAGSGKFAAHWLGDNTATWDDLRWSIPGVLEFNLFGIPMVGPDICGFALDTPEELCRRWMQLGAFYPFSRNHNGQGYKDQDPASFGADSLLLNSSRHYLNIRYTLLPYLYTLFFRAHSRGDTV
T3 sequence (P69328 other isoform, or with tags, fused parts or gaps): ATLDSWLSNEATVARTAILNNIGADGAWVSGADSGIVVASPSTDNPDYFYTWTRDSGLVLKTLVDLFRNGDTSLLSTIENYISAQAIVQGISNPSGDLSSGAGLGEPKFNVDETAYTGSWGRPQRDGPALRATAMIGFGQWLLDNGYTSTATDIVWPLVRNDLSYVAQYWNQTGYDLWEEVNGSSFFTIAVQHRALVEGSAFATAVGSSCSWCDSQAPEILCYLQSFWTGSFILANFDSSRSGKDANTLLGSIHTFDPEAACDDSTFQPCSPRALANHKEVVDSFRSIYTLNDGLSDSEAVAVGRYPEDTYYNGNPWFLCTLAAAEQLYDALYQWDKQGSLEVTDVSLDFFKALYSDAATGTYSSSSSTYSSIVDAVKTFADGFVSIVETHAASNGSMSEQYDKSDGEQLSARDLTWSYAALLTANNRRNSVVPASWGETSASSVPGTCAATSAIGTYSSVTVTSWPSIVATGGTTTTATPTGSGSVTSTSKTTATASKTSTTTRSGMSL
T4 sequence (P00693 25-438): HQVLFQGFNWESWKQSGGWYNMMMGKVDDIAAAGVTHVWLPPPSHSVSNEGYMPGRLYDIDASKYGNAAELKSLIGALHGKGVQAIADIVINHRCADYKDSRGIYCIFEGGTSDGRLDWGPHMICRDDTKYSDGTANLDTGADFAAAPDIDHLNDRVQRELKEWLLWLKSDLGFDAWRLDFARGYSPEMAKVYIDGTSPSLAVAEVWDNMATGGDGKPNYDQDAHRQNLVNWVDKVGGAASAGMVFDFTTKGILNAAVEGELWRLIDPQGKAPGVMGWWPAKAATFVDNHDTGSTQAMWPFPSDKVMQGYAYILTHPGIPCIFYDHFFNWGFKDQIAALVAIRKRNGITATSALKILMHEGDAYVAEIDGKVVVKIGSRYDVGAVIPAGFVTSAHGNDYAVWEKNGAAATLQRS

O=S(=O)([O-])O[C@H]1[C@H](O)C(O)O[C@@H]1C[S@+]1C[C@@H](O)[C@H](O)[C@H]1CO (stereo partly drawn) [Compound 101, 3-O-sulfoxy-5-deoxy-5-[1,4-dideoxy-1,4-episufoniumylidene-D-arabinitol]-α/β-D-arabinose inner salt]
stability on storage in aqueous solution ([1]; aqueous solution, several days at ambient temperature): unchanged

O=S(=O)([O-])O[C@H](CO)[C@@H](O)C[S@@+]1C[C@@H](O)[C@H](O)[C@@H](O)C1
Ki [2]: > 5000 µM

O=S(=O)([O-])O[C@@H]([C@H](O)[C@H](O)[C@@H](O)CO)[C@H](O)C[S+]1C[C@@H](O)[C@H](O)[C@H]1CO (some centres unmarked) [Kotalanol]
inhibitory activity against sucrase (in words) [3]: more potent inhibitory activity against sucrase than Salicinol and Acarbose

O=S(=O)([O-])OC(CO)C(O)C[Se+]1CC(O)C(O)C1CO [Blintol, 1,4-Dideoxy-1,4-[[(2S,3S)-2,4-dihydroxy-3-(sulfooxy)butyl]episelenoniumylidene]-D-arabinitol Inner Salt]
time at which insulin values were different from basal [4]: 15 min
time at which plasma glucose returned to basal [4]: 60 min
15 minute glucose excursion from basal ([4]; mean ± SE, n=6): 29.3 ± 6.5 mg/dL
decrease of the 90 minute insulin AUC [4]: 53%
percent inhibition of maltase activity [5]: 50%
IC50 [6]: 0.2 µM

O=S(=O)(O)O[C@H](CO)[C@@H](O)CN1C[C@H](O)[C@@H](O)[C@@H]1CO
Ki [7, 10]: > 5000 µM
Ki [2]: 400 µM
Ki ([8]; read-out: Ki GA (Glucoamylase)): > 8000 µM
Ki [9, 11]: > 5000 µM

O=S(=O)(O)O[C@H](CO)[C@@H](O)CN1C[C@H](O)[C@@H](O)[C@H](O)[C@H]1CO [Compound 67b, 1,5-Dideoxy-1,5-[[N-(2R,RS)-2,4-dihydroxy-3-(sulfooxy)-butyl]iminoonium]-D-glucitol]
stability of the 3′-sulfate ester on storage ([1]; D2O/NaOD at pH>10, 2 days at ambient temperature): completely hydrolyzed

O=S(=O)([O-])O[C@H](CO)[C@@H](O)C[Se+]1C[C@@H](O)[C@H](O)[C@@H](O)C1 (some centres unmarked)
Ki [2]: > 5000 µM

O=S(=O)([O-])O[C@H](CO)[C@@H](O)C[S@+]1C[C@@H](O)[C@H](O)[C@@H](O)C1
Ki [2]: > 5000 µM
Ki MGA (Human intestinal maltase glucoamylase) [6]: mM

O=S(=O)([O-])O[C@@H](CO)[C@H](O)C[Se@+]1C[C@@H](O)[C@H](O)[C@H]1CO
Ki [7]: > 5000 µM
Ki [2]: > 5000 µM
Ki [9]: > 5000 µM
Ki MGA (Human intestinal maltase glucoamylase) [6]: nM

O=S(=O)([O-])OC(CO)C(O)C[S+]1CC(O)C(O)C1CO [Salacinol, 1,4-Dideoxy-1,4-[[(2S,3S)-2,4-dihydroxy-3-(sulfooxy)butyl]-episulfoniumylidene]-D-arabinitol Inner Salt, reference compound]
Ki ([7]; amylose DP17, pH 6.9, 37° C., read-out: Ki value, PPA): 10 ± 2 µM
plasma glucose profile (in words) [4]: significantly lower post-prandial plasma glucose
plasma insulin profile (in words) [4]: significantly lower post-prandial plasma glucose and insulin concentrations
time at which insulin values were different from basal [4]: 15 min
time at which plasma glucose returned to basal [4]: 60 min
glucose Area Under the Curve, 0-90 minutes (in words) ([4]; excursion above basal): slightly lower 90 minute AUC's than Acarbose
decrease of the 90 minute insulin AUC [4]: 65%
inhibition of HPA (in words) [2]: inhibits both HPA and MGA
Ki [8]: 1700 µM
percent inhibition of maltase activity [5]: 13%
Ki ([9]; amylose DP17, pH 5.5, 37° C., read-out: Ki value, AMY1): 15 ± 1 µM
inhibition of MGA (in words) [6]: inhibits both HPA and MGA
inhibition at 5 µM ([6]; read-out: percent inhibition of the breakdown of maltose): 60%

O=S(=O)([O-])O[C@@H](CO)[C@H](O)C[S@+]1C[C@@H](O)[C@H](O)[C@H]1CO
Ki [7, 10]: 10 µM
Ki [2]: 75 µM
Ki [8]: 1710 µM
Ki [9, 11]: 15 µM
